± gives the expanded uncertainty stated by the source. Each block holds one compound with its values, some of them ahead of it.
Key:
[1] = Liquid; for mass density: 101.33 kPa
[2] = refractive index (Na D-line) (dimensionless); details: 101.33 kPa, Liquid, Standard Abbe refractometry
[3] = 298.15 K, Vibrating tube method

SMILES: Brc1ccccc1 [bromobenzene]
mass density [1, 3]: 1488.3 ± 2 kg/m3 | vapor or sublimation pressure ([1]; 427.05 K): 95.5 ± 4 kPa | refractive index ([2]; 298.15 K): 1.5571 ± 0.0008

SMILES: COc1ccccc1 [anisole]
mass density [1, 3]: 989.3 ± 2 kg/m3 | vapor or sublimation pressure ([1]; 424.65 K): 95.5 ± 4 kPa | refractive index ([2]; 298.15 K): 1.5142 ± 0.0008

SMILES: CC(=O)CC(C)=O [2,4-pentanedione]
mass density [1, 3]: 972 ± 2 kg/m3 | vapor or sublimation pressure ([1]; 409.35 K): 95.5 ± 4 kPa | refractive index ([2]; 293.15 K): 1.4511 ± 0.0008

SMILES: CC#N [acetonitrile]
mass density ([1]; 298.15 K): 776.5 ± 2 kg/m3 | vapor or sublimation pressure ([1]; 352.15 K): 95.5 ± 4 kPa | vapor or sublimation pressure ([1]; 352.55 K): 95.5 ± 4 kPa | refractive index ([2]; 298.15 K): 1.3416 ± 0.0008

The next lines start with the values.

mass density ([1]; 303.15 K, Vibrating tube method): 742 ± 2 kg/m3 | vapor or sublimation pressure ([1]; 326.45 K): 95.5 ± 4 kPa | refractive index ([2]; 293.15 K): 1.369 ± 0.0008
SMILES: COC(C)(C)C [2-methoxy-2-methylpropane]

mass density [1, 3]: 933.4 ± 2 kg/m3 | vapor or sublimation pressure ([1]; 439.55 K): 95.5 ± 4 kPa | refractive index ([2]; 298.15 K): 1.3825 ± 0.0008
SMILES: CCO[Si](OCC)(OCC)OCC [tetraethoxysilane]

mass density [1, 3]: 781.3 ± 2 kg/m3 | vapor or sublimation pressure ([1]; 354.05 K): 95.5 ± 4 kPa | refractive index ([2]; 298.15 K): 1.3751 ± 0.0008
SMILES: CC(C)O [propan-2-ol]

From the NIST ThermoML archive (doi:10.1016/j.jct.2007.03.007)
